Experimental data reported in ChEMBL document CHEMBL1123676, “Synthetic and enzyme inhibition studies of pepstatin analogues containing hydroxyethylene and ketomethylene dipeptide isosteres” (J Med Chem, 1987).
Non-standard residues stand in square brackets, D forms with d. Residues, ends and D or L forms follow the SMILES beside them. ξ: configuration not given here. *: point of attachment. Cbz = O=C(OCc1ccccc1)*; ξL = CC(C)CC(N)C(=O)O; ξA = CC(N)C(=O)O

Experiments:
[1] = biological target: T1, Pepsin A (Sus scrofa, UniProt P00791); test: Inhibition of porcine pepsin
T1 sequence (P00791 whole entry): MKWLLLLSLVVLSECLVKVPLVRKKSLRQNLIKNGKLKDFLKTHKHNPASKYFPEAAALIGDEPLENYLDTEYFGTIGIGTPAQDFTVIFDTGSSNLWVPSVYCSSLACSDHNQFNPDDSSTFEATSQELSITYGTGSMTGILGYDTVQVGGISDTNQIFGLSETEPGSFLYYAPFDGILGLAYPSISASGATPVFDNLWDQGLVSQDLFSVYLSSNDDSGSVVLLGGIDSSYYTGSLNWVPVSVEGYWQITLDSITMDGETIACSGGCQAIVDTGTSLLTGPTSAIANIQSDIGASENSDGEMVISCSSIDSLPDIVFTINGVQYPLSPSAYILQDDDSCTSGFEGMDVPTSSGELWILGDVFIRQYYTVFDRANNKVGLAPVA

[2] = biological target: Pepsin A (Sus scrofa) (UniProt P00791); test: Slow binding inhibition characteristic of the pepstatin-pepsin interaction; - indicates that the binding is not slow.
Chain of Pepsin A (Sus scrofa) (P00791 60-385 limits assumed): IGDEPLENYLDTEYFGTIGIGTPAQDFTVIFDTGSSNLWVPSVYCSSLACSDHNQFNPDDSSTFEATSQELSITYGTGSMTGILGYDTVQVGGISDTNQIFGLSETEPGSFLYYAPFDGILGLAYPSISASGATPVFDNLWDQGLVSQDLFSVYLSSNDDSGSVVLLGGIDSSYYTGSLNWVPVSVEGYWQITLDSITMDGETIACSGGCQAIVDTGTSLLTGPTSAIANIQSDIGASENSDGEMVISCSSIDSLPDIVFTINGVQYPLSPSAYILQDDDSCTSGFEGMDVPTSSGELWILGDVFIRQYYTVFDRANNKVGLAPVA

[3] = Ratio of kinetic constant kcat / KM of porcine pepsin
[4] = biological target: Pepsin A (Sus scrofa) (UniProt P00791); test: The kinetic constant (Kcat)of porcine pepsin substrate Z-His-Phe-Gly-oMe was determined
[5] = biological target: Pepsin A (Sus scrofa) (UniProt P00791); test: The kinetic constant (Kcat)of porcine pepsin substrate Z-His-Phe-Leu-oMe was determined
[6] = biological target: Pepsin A (Sus scrofa) (UniProt P00791); test: Slow binding inhibition characteristic of the pepstatin-pepsin interaction; indicates that the binding is not slow.
[7] = biological target: Pepsin A (Sus scrofa) (UniProt P00791)
[8] = biological target: T1, Pepsin A; test: Inhibitory activity against porcine pepsin substrate Z-His-Phe-DPhe-oMe was determined
[9] = biological target: Pepsin A (Sus scrofa) (UniProt P00791); remark: listed apart in the source
[10] = biological target: Pepsin A (Sus scrofa) (UniProt P00791); test: The kinetic constant (Kcat)of porcine pepsin substrate Z-His-Phe-Phe-oMe was determined
[11] = biological target: T1, Pepsin A; test: Inhibitory activity against porcine pepsin was determined
[12] = biological target: Pepsin A (Sus scrofa) (UniProt P00791); test: The kinetic constant (Kcat)of porcine pepsin substrate Z-His-Phe-Ala-oMe was determined

Structure (SMILES) | Ki [1] | Slow binding [2] | also measured
CC(C)CCNC(=O)CNC(=O)C[C@H](O)C(CC(C)C)NC(=O)C(NC(=O)CC(C)C)C(C)C (stereo not given in full) | 0.056 µM | binding is not slow | 
CC(C)CCNC(=O)C(C)NC(=O)C(C)C[C@H](O)[C@H](CC(C)C)NC(=O)C(NC(=O)CC(C)C)C(C)C (stereo not given in full) | 0.003 µM |  | 
COC(=O)CNC(=O)[C@H](Cc1ccccc1)NC(=O)[C@H](Cc1c[nH]cn1)NC(=O)OCc1ccccc1 (Cbz-His-Phe-Gly-OMe) |  |  | Ratio [3]: 1.3; k cat [4]: 2.1 ms-1
CC(C)CCNC(=O)C(C)NC(=O)C(CC(=O)[C@H](CC(C)C)NC(=O)C(NC(=O)CC(C)C)C(C)C)Cc1ccccc1 (stereo not given in full) | 0.072 µM | binding is not slow | 
COC(=O)C(CC(C)C)NC(=O)[C@H](Cc1ccccc1)NC(=O)[C@H](Cc1c[nH]cn1)NC(=O)OCc1ccccc1 (stereo partly drawn) (Cbz-His-Phe-[ξL]-OMe) |  |  | k cat [5]: 5.2 ms-1; Ratio [3]: 10
CC(C)CCNC(=O)C(C)NC(=O)[C@H](Cc1ccccc1)C[C@H](O)[C@H](CC(C)C)NC(=O)C(NC(=O)CC(C)C)C(C)C (stereo not given in full) | 0.14 µM |  | Slow binding [6]: indicates that the binding is not slow
CC(C)CCNC(=O)C(C)NC(=O)CC(=O)C(CC(C)C)NC(=O)C(NC(=O)CC(C)C)C(C)C (stereo not given) | 0.056 µM | binding is not slow | 
CC(C)CCNC(=O)C(C)NC(=O)[C@@H](CC(=O)[C@H](CC(C)C)NC(=O)C(NC(=O)CC(C)C)C(C)C)Cc1ccccc1 (stereo not given in full) | 0.85 µM | binding is not slow | 
CC(C)CCNC(=O)C(C)NC(=O)C(C)CC(=O)[C@H](CC(C)C)NC(=O)C(NC(=O)CC(C)C)C(C)C (stereo not given in full) | 0.027 µM | binding is not slow | 
CC(C)CCNC(=O)C(C)C[C@H](O)[C@H](CC(C)C)NC(=O)C(NC(=O)CC(C)C)C(C)C (stereo not given in full) | 0.027 µM |  | Slow binding [7]: binding is not slow
COC(=O)[C@@H](Cc1ccccc1)NC(=O)[C@H](Cc1ccccc1)NC(=O)[C@H](Cc1c[nH]cn1)NC(=O)OCc1ccccc1 |  |  | Ki [8]: 280 µM
CC(C)CCNC(=O)C(C)NC(=O)CC[C@H](O)[C@H](CC(C)C)NC(=O)C(NC(=O)CC(C)C)C(C)C (stereo not given in full) | 0.05 µM |  | Slow binding [9]: binding is not slow
COC(=O)C(Cc1ccccc1)NC(=O)[C@H](Cc1ccccc1)NC(=O)[C@H](Cc1c[nH]cn1)NC(=O)OCc1ccccc1 (stereo not given in full) |  |  | Ratio [3]: 520; k cat [10]: 170 ms-1
CC(C)CCNC(=O)C(C)NC(=O)CCC(=O)[C@H](CC(C)C)NC(=O)C(NC(=O)CC(C)C)C(C)C (stereo not given in full) | 2.14 µM | binding is not slow | 
CC(C)CCNC(=O)C(C)NC(=O)C[C@H](O)C(CC(C)C)NC(=O)C(NC(=O)CC(C)C)C(C)C (stereo not given in full) |  |  | Ki [11]: 0.003 µM
COC(=O)C(C)NC(=O)[C@H](Cc1ccccc1)NC(=O)[C@H](Cc1c[nH]cn1)NC(=O)OCc1ccccc1 (stereo partly drawn) (Cbz-His-Phe-[ξA]-OMe) |  |  | Ratio [3]: 2.1; k cat [12]: 3.7 ms-1
CC(C)CCNC(=O)C(C)NC(=O)C(Cc1ccccc1)C[C@H](O)[C@H](CC(C)C)NC(=O)C(NC(=O)CC(C)C)C(C)C (stereo not given in full) | 0.0025 µM |  | 
